Reference: patent US12649748B2, “Wee1 inhibitor and use thereof” (JIANGSU TASLY DIYI PHARMACEUTICAL CO., LTD., priority 2021, dated 2026)
Read-outs that look alike come from different tables or passages of the source.

How the values were obtained:
H1299 cells = assay: Anti-proliferative effect by Cell Titer-Glo, H1299; type: cell-based; details: Homo sapiens, NCI-H1299, 72 h, read-out: IC50 measured value H1299
Method: (§1) Compound solutions of different concentration gradients were prepared. DMSO was dissolved to a concentration of 10 mM test compound and 10 mM reference compound AZD1775, and the compounds were serially diluted in culture medium for a total of 9 dose points, with 2 parallel replicates set at each concentration. The cell growth group without compound was used as a positive control (maximum signal control) and the medium was used as a negative control (minimum signal control), while ensuring that the final level of DMSO in each reaction well was 0.2%. After removing the medium from the 384-well plate, 25 ul of the configured compound at different concentrations was transferred into the well plate and the compound and cells were incubated in the cell incubator at 37° C. with 5% CO2 for 3 days.
(§2) The 384-well plates were removed from the cell incubator and allowed to equilibrate for 1 h to room temperature. 25 ul of Cell Titer-Glo assay was added to each well, lysed on a shaker for 2 min and then read out (Luminescence) using a BMG PHERAStar after 10 min incubation. Calculate the inhibition rate from the luminescence signal: first calculate the average of the positive control (maximum signal control) and the negative control (minimum signal control).
(§3) [formula] to calculate the rate of inhibition of the cells by different concentrations of the compounds. The IC50 of the compound on cell activity inhibition was calculated by fitting a log(inhibitor) vs. response-Variable slope model to GraphPad Prism 6. The fitted equation was: Y=Bottom+(Top−Bottom)/(1+10^((Log IC50−X)*HillSlope)), where Y represents the rate of inhibition and X represents the concentration of the known compound after Log.

MIA Paca-2 cells = assay: Anti-proliferative effect by Cell Titer-Glo, MIA Paca-2; type: cell-based; details: Homo sapiens, read-out: IC50 measured value MIA Paca-2
Method: as §1, §2, §3

Wee1 protein = target: T1, Wee1 protein (Homo sapiens, UniProt P30291); assay: Binding of compound to Wee1 protein and Tracer 178 by TR-FRET; details: inhibitory activity against Wee1 kinase, read-out: IC50 measured value
T1 construct: purchased Thermo Fisher PR7373A
Method: First, solutions of the compounds in different concentration gradients were prepared. […] DMSO was added as a positive control (maximal signal control) and a negative control (minimal signal control) and a final level of 0.25% DMSO was ensured in each reaction well.
WEE1 (Thermo Fisher, Cat #PR7373A) protein in buffer (50 mM Hepes pH 7.5, 10 mM MgCl2, 1 mM EGTA, 0.01% Brij-35) at 15 nM) in different concentrations of compound, and Tracer 178 (Invitrogen, PV5593) and MAb Anti-GST-Eu crypate (Cisbio, 61GSTKLA) were added to 384-well plates (Corning, cat #3574), centrifuged at 1000 rpm for 1 min and the 384-well plates were incubated in a constant temperature shaker for 60 min at 25° C. and 300 rpm. Tracer 178 and MAb Anti-GST-Eu crypate were prepared in buffer (50 mM HEPES pH 7.5, 10 mM MgCl2, 1 mM EGTA, 0.01% Brij-35) with a final reaction concentration of 50 nM for Tracer 178 and a final concentration of 2 nM for MAb Anti-GST-Eu crypate, where the negative control (minimal signal control) used an equal amount of buffer in place of the protein solution.
After incubation, readings were performed using BMG PHERAStar (excitation light at 337 nm and emission light at wavelength values of 620 nm and 665 nm to read the fluorescence signal values). […] The IC50 for inhibition of enzyme activity by the compounds was then calculated using GraphPad Prism 6 and fitted with a log (inhibitor) vs. response-Variable slope mode. The fitting equation was: Y=Bottom+(Top-Bottom)/(1+10^((Log IC50−X)*HillSlope)), where Y represents the percentage of residual enzyme activity known and X represents the known concentration of compound after the logarithm.

CYP1A2 = target: T2, CYP1A2 (Homo sapiens, UniProt P05177); assay: Inhibition of cytochrome P450, CYP1A2; type: in vitro ADME; details: CYP1A2 enzyme, pH 7.4, probe EOMCC, read-out: CYP inhibition/% 1A2; for inhibition at 30 min, 1 µM: compound concentration 1 μM; for inhibition at 30 min, 10 µM: compound concentration 10 μM
T2 sequence (P05177 1-516): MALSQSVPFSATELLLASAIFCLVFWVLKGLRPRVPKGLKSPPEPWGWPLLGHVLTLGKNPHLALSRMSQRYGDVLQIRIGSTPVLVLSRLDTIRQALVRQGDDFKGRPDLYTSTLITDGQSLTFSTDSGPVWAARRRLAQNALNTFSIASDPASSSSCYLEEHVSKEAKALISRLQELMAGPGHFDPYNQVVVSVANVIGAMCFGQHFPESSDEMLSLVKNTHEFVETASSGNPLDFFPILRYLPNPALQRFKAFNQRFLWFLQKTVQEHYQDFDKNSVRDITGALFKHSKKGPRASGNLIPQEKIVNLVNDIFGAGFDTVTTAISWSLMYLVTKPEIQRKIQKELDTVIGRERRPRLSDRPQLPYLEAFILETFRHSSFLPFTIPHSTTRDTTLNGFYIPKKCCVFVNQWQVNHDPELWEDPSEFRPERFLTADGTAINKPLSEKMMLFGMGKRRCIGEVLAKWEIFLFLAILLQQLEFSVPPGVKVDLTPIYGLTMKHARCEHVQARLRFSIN
Method: (§4) Enzymatic experiments were performed to quantify the inhibition of CYP450 enzyme activity of each isoform of CYP450 by small molecule inhibitors through fluorescence generated by the oxidation of the substrate by cytochrome P450. […] The Solution B composition used for the experiment was: 40 U/mL G6PDH (Sigma-aldrich, Cat #G6378). The substrate mix was 0.05× Solution A, 0.01× Solution B, 50 mM Potassium Phosphate, 0.01 mM BOMCC/0.01 mM EOMCC/0.001 mM DBOMF. […] The data were analyzed and processed using GraphPad Prism 6 software to obtain IC50 values.

CYP2C9 = CYP2C9 (Homo sapiens, UniProt P11712); assay: Inhibition of cytochrome P450, CYP2C9; type: in vitro ADME; details: CYP2C9 enzyme, pH 7.4, probe BOMCC, read-out: CYP inhibition/% 2C9; for inhibition at 30 min, 1 µM: compound concentration 1 μM; for inhibition at 30 min, 10 µM: compound concentration 10 μM
Method: as §4

CYP2D6 = CYP2D6 (Homo sapiens, UniProt P10635); assay: Inhibition of cytochrome P450, CYP2D6; type: in vitro ADME; details: CYP2D6 enzyme, pH 7.4, probe EOMCC, read-out: CYP inhibition/% 2D6; for inhibition at 30 min, 1 µM: compound concentration 1 μM; for inhibition at 30 min, 10 µM: compound concentration 10 μM
Method: as §4

CYP3A4 = CYP3A4 (Homo sapiens, UniProt P08684); assay: Inhibition of cytochrome P450, CYP3A4; type: in vitro ADME; details: CYP3A4 enzyme, pH 7.4, probe BOMCC, read-out: CYP inhibition/% 3A4; for inhibition at 30 min, 1 µM: compound concentration 1 μM; for inhibition at 30 min, 10 µM: compound concentration 10 μM
Method: as §4

[1] = H1299 cells, 3 days, Cell Titer-Glo
[2] = 72 h, MIA Paca-2 cells, 3 days, Cell Titer-Glo

T1 sequence (P30291 whole entry): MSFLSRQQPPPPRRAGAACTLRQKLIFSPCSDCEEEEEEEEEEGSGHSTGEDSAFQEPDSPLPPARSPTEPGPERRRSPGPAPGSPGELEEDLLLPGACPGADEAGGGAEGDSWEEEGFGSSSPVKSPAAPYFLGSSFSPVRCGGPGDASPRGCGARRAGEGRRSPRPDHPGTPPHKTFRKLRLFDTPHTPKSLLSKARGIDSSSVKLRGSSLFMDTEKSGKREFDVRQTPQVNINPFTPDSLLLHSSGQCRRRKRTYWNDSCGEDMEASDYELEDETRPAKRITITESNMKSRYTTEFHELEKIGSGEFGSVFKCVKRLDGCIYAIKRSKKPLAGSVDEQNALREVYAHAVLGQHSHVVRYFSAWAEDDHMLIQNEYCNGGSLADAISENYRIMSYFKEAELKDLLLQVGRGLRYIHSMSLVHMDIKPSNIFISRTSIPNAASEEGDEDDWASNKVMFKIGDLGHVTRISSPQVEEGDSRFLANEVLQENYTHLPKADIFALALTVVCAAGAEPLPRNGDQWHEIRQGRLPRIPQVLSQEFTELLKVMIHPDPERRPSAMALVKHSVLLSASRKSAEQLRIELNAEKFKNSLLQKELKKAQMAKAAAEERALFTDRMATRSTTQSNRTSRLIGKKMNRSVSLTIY
Sequence of CYP2D6 (P10635 whole entry): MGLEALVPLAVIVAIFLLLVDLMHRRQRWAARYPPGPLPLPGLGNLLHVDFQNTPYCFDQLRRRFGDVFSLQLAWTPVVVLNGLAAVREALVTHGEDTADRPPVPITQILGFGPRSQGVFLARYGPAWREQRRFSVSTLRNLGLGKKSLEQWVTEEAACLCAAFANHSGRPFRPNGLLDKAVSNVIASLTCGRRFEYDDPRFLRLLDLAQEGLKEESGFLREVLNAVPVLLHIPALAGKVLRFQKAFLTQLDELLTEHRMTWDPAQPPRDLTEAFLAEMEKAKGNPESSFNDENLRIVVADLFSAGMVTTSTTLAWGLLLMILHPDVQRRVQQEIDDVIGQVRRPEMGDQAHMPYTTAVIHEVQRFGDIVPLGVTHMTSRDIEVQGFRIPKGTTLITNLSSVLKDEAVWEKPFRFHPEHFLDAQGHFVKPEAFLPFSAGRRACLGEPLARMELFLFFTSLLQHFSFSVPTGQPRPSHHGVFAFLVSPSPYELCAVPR
Sequence of CYP3A4 (P08684 whole entry): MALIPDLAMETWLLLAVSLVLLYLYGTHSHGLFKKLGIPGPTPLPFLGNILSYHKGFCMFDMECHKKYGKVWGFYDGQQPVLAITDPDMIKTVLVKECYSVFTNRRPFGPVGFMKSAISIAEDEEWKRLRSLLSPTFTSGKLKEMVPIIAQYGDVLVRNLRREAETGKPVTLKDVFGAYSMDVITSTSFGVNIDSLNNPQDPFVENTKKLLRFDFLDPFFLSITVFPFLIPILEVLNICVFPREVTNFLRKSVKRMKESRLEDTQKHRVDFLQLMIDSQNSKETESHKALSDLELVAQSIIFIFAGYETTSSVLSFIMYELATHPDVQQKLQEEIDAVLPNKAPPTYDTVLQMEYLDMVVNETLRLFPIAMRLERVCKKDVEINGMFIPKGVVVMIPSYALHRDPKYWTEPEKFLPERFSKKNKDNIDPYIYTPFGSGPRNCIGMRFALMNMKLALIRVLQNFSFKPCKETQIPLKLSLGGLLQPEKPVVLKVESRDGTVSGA
Sequence of CYP2C9 (P11712 whole entry): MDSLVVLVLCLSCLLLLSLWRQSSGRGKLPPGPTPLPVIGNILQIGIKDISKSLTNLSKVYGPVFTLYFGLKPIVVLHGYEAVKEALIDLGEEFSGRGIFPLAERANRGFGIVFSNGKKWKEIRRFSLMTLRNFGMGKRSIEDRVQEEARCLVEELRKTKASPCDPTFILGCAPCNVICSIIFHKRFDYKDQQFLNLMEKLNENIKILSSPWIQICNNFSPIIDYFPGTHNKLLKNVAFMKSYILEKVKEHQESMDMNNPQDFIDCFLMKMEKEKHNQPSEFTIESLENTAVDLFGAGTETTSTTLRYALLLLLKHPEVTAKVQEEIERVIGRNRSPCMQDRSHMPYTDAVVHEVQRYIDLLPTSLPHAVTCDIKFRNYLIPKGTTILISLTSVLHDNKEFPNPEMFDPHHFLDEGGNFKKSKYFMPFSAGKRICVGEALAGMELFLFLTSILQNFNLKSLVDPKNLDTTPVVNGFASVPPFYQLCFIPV

Compound | IC50 (H1299 cells; [1]) [nM] | IC50 (MIA Paca-2 cells; [2]) [nM] | IC50 (Wee1 protein) [nM] | inhibition at 30 min, 1 µM (CYP1A2) [%] | inhibition at 30 min, 10 µM (CYP1A2) [%] | inhibition at 30 min, 1 µM (CYP2C9) [%] | inhibition at 30 min, 10 µM (CYP2C9) [%] | inhibition at 30 min, 1 µM (CYP2D6) [%] | inhibition at 30 min, 10 µM (CYP2D6) [%] | inhibition at 30 min, 1 µM (CYP3A4) [%] | inhibition at 30 min, 10 µM (CYP3A4) [%] | IC50 (H1299 cells) [nM] | IC50 (MIA Paca-2 cells; MIA PaCa-2, 72 h) [nM]
C=CCn1c(=O)c2cnc(Nc3ccc(N4CCN(C)CC4)cc3)nc2n1-c1cccc(C(C)(C)O)n1 [AZD-1775, reference compound] | 100 to 1000 | 100 to 1000 | – | – | – | – | – | – | – | – | – | – | –
Cc1cc(Nc2ncc3cnn(-c4cccc(N=S(C)(C)=O)n4)c3n2)ccc1N1CCC(N(C)C)CC1 [Compound 14] | 100 to 1000 | < 100 | 1 to 10 | – | – | – | – | – | – | – | – | – | –
Cc1cc(Nc2ncc3cnn(-c4cccc(N=S(C)(C)=O)n4)c3n2)ccc1N1CCN(C)CC1 [Compound 16] | 100 to 1000 | 100 to 1000 | 1 to 10 | – | – | – | – | – | – | – | – | – | –
CS(C)(=O)=Nc1cccc(-n2ncc3cnc(Nc4ccc(N5CCOCC5)cc4)nc32)n1 [Compound 6] | 100 to 1000 | – | 10 to 100 | 15.5 | 23.3 | 15.3 | 13.1 | -7.6 | -19.4 | -26.1 | -25.7 | – | –
CN1CCN(c2ccc(Nc3ncc4cnn(-c5cccc(N=S(C)(C)=O)n5)c4n3)cc2)CC1 [Compound 1] | – | – | 1 to 10 | 18.4 | 16.3 | 7.5 | 18.6 | 2.8 | 2 | 8.1 | 10.9 | 1000 to 5000 | 100 to 1000
CN1CCN(c2ccc(Nc3ncc4cnn(-c5cccc(C(C)(C)O)n5)c4n3)cc2)CC1 [Compound 2] | 1000 to 5000 | – | 10 to 100 | 13.5 | 14.2 | -10.6 | -16 | 0.3 | 3.1 | 0 | -10.6 | – | –
